US9181218B2, “Compounds for improved stem cell differentiation into hepatocytes” (Hoffmann-La Roche Inc., priority 2013, dated 2015)

Tests used:
HBV = test: Infection of iCell Hepatocytes with HBV; assay type: cell-based, hepatitis B virus (HBV)
Protocol: Two hundred microliters of HBV-containing serum was applied onto a 10-50% Optiprep gradient in SW41 tubes. Samples were centrifuged at 100,000×g for 2 hr at 4 C. Five hundred microliters fractions were collected from the top; each fraction was analyzed for HBsAg (ELISA) and HBV DNA (TaqMan PCR). Fractions containing virus were stored at −80 C.
Fresh iCell® Hepatocytes (day 20-23) were plated and cultured according to iCell Hepatocytes Dissociation and Plating User's Guide at 60 k cells per well in 96 well BIO Collagen IV coated plates (BD Cat#354429) 4 Hours post plating Medium C was removed and replaced with a 1:50 Matrigel (Cat#354227) overlay in Medium D. Twenty four hours post plating, cells were treated with 1 uM of the compound of example 1 in Medium D containing 1% DMSO. Media containing fresh compound was replenished 2 days later. At day 4 post plating, cells were infected with HBV at MOI (multiplicity of infection) of 10. Briefly, purified virus was diluted in medium D containing the compound of example 1 and incubated with cells for 4-6 hr or overnight. After removal of virus inoculum, fresh media containing 1 uM of the compound of example 1 was added and cells were incubated for 14 days with a medium change every 2 days. Culture media were analyzed for secreted viral antigens (HBsAg, HBeAg) and HBV DNA.

[1] = Microarray analysis of iCell Hepatocytes treated with the compound of example 1; assay type: cell-based, Human; details: 2 HOUR
Text: iCell Hepatocytes treated with the compound of example 1 results in the up and down-regulation of a host of genes; including a kinetic effect on interferon-stimulated gene (ISGs) expression. See FIGS. 15-I and 15-II, 16-I and 16-II and 18 and Table 1.

## O=C(NCc1cccc(F)c1)c1cccc2nc(-c3c(NC[C@@H](O)c4ccccc4)cc[nH]c3=O)[nH]c12 [Example 1, 2-[4-((S)-2-hydroxy-2-phenyl-ethylamino)-2-oxo-1,2-dihydro-pyridin-3-yl]-3H-benzoimidazole-4-carboxylic acid 3-fluoro-benzylamide]
HBV; iCell hepatocytes treated with compound
  infection of the four major HBV genotypes: support robust infection of all four major HBV genotypes
HBV; iCell hepatocytes treated with compound, FIG. 8
  infection with patient-derived vs cell culture-derived (HepG2.2.15) HBV: support infection of patient-derived, but not cell culture-derived, HBV
HBV; iCell hepatocytes, FIG. 3
  cell susceptibility to HBV infection: cell susceptibility to HBV infection that occurred in a dose-dependent manner
HBV; pre-treated 6 d vs pre-treated and during infection (throughout)
  need for compound presence to maintain robust viral infection: Continuous presence of the compound of example 1 is required
[1]
  ABCA9 Raw Est Fold Change: −4.37
  PCP4 Raw Est Fold Change: −2.44
